From patent US20130338217A1, “ANTIBIOTIC COMPOSITION INCLUDING PHLOROTANNIN COMPOUND DERIVED FROM EISENIA BICYCLIS AS EFFECTIVE COMPONENT” (PUKYONG NATIONAL UNIVERSITY INDUSTRY-UNIVERSITY C, priority 2012, published 2013)
Converted amounts (≈) assume the structure as drawn. Read-outs that look alike come from different tables or passages of the source.

Key:
Type in all cases: cell-based, Staphylococcus aureus
MSSA (KCTC 1927) = assay: Minimum inhibitory concentration, two-fold serial dilution, MSSA KCTC 1927
Protocol: (§1) All the bacterial strains used for the Example were obtained from the Korean Collection of Type Cultures (KCTC; Daejeon, Korea) and the Korean Culture Center of Microorganisms (KCCM; Seoul, Korea). The bacterial strains used for the Example were methicillin-susceptible S. aureus (MSSA; KCTC 1927), two MRSA strains (KCCM 40510 and KCCM 40511). All strains were grown in Mueller-Hinton broth (MHB; Difco, Detroit, USA) or Tryptic soy broth (TSB; Difco) for minimum inhibitory concentration (MIC) assay and in Mueller-Hinton agar (MHA; Difco) for disc diffusion.
(§2) MIC means the lowest concentration of antimicrobials that will inhibit the visible growth of microorganisms after overnight incubation. MICS of the extracts and vancomycin were determined by the two-fold serial dilution method in MHB.

MRSA (KCCM 40510) [1] = assay: Minimum inhibitory concentration, two-fold serial dilution, MRSA KCCM 40510
Protocol: as §1, §2

MRSA (KCCM 40511) [2] = assay: Minimum inhibitory concentration, two-fold serial dilution, MRSA KCCM 40511
Protocol: as §1, §2

MSSA (KCCTC 1927) = assay: Checkerboard synergy of phlorofucofuroeckol-A and β-lactams, MSSA KCTC 1927; details: for MIC: Staphylococcus aureus, MSSA
MRSA (KCCM 40510) [3] = assay: Checkerboard synergy of phlorofucofuroeckol-A and β-lactams, MRSA KCCM 40510; details: for MIC: Staphylococcus aureus
Protocol: (§3) The interaction between phlorofucofuroeckol-A (PFF) and β-lactams including ampicillin, penicillin and oxacillin against MRSA was tested by the checkerboard method. The synergistic effect was evaluated as a fractional inhibitory concentration (FIC) index. The FIC was calculated as the MICS of an antibiotic or phlorofucofuroeckol-A (PFF) in combination divided by the MIC of the antibiotic or PFF alone as follows.
(§4) The FIC was then summed to derive the FIC index, which indicated synergy when index values were as follows:
(§5) synergism ≦≦0.5, indifference >0.5 to ≦≦4, antagonism >4.
(§6) FICA=MICA in combination/MICA, FICB=MICB in combination/MICB

MRSA (KCCM 40511) [4] = assay: Checkerboard synergy of phlorofucofuroeckol-A and β-lactams, MRSA KCCM 40511; details: for MIC: Staphylococcus aureus
Protocol: as §3, §4, §5, §6

[5] = system: mec operon (mecA, mecI, mecR1); assay: RT-PCR of drug resistance related genes in MRSA; details: MRSA cells treated with various concentrations
Protocol: In order to elucidate the inhibitory effect of phlorofucofuroeckol-A on expression of drug resistance related genes, MRSA cells were treated with various concentrations of phlorofucofuroeckol-A. After cell harvesting, Total RNA was isolated from the strains with zirconia beads and RNAwiz with the manufacturer's specifications. RNA concentrations were estimated via spectrophotometer at 260 nm. The 0.2-1.4 μg of total RNA plus 1.4 μg of random primer was denatured at 65° C. for 5 min, then cooled at 30 sec and preincubated for 2 min at 37° C. after the addition of 10 mM dithioothreitol (DTT), 2.5 mM each of dNTPs, and reaction buffer. Any remaining cRNA was removed via the addition of 2 units RNase H at 37° C. for 20 min. One hundred units of Superscript II reverse transcriptase were added and incubated for 50 min at 37° C. The reaction was then suspended at 70° C. for 15 min. One point five percent of the RT products were added to a PCR reaction which included PCR buffer (pH 8.4, 20 mM Tris, 50 mM KCl), 1.5 mM MgCl2, 0.5 mM dNTPs, 2 pM primers and 0.1 μL Taq DNA polymerase. Twenty-eight PCR cycles were then conducted follows: denaturation at 95° C. annealing at an indicated temperature for each primer and extension at 72° C. […]

PBP2a = assay: Western blot of PBP2a in MRSA; details: MRSA cells treated with various concentrations
Protocol: In order to elucidate the inhibitory effect of phlorofucofuroeckol-A on expression of a drug resistance related protein, PBP2a, MRSA cells were treated with various concentrations of phlorofucofuroeckol-A. After cell harvesting, the bacterial lysates were prepared in a lysis buffer containing 20 mM Tris-HCl (pH 7.5), 2 mM ethyleneglycoltetraacetic acid (EGTA), 2 mM ethylenediaminetetraacetic acid (EDTA) and 0.25 M sucrose. The pellets were resuspended by sonication in lysis buffer 2 times for 20 sec. Following 10 min of centrifugation at 13,000×g, the supernatant was obtained as the cell lysate. Protein concentrations were measured with Bradford protein assay. An equal amount of 2×SDS-PAGE sample buffer (pH […], 1 mM EGTA, 1 mM EDTA, 1% SDS, 150 mM NaCl) was added to the tubes containing the cell lysate and the tubes were boiled for 3 min. Aliquots of cellular proteins were then electrophoresed on 10%.

MRSA = assay: Synergy of PFF with β-lactams against MRSA as stated in text; details: PFF 25 pg/mL as printed
Protocol: as §3

[6] = Table 6, isolated phlorotannins
[7] = in combination with phlorofucofuroeckol-A at 12.5 μg/ml, read-out: MIC of β-lactam (B)
[8] = in combination with phlorofucofuroeckol-A at 25 μg/ml, read-out: MIC of β-lactam (C)
[9] = without phlorofucofuroeckol-A, read-out: MIC of β-lactam (A)
[10] = β-lactam with phlorofucofuroeckol-A at 12.5 μg/ml, synergism ≦0.5, indifference >0.5 to ≦4, antagonism >4
[11] = β-lactam with phlorofucofuroeckol-A at 25 μg/ml, synergism ≦0.5, indifference >0.5 to ≦4, antagonism >4
[12] = Table 5, PFF and β-lactams, mecA positive strain

Chain of PBP2a (P07944 whole entry): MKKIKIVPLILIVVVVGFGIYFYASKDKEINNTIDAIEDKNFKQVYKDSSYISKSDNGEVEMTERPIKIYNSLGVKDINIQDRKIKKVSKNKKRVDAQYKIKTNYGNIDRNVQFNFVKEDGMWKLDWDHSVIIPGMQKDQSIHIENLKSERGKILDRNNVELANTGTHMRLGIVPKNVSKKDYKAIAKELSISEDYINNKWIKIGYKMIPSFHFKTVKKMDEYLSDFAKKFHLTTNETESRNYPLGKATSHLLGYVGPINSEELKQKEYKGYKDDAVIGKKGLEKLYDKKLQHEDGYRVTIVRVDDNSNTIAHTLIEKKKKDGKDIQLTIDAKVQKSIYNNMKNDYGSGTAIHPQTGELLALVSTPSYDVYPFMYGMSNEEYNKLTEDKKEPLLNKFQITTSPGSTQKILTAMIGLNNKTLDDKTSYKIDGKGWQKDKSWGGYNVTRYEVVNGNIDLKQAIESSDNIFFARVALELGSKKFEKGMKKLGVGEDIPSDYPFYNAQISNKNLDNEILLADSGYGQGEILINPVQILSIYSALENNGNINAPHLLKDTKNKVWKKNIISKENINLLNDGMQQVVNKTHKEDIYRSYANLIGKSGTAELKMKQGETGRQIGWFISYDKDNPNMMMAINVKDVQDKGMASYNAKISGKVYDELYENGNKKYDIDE

## Oc1cc(O)cc(Oc2c(O)cc(O)c3c2Oc2c(O)cc(Oc4c(O)cc(O)cc4O)cc2O3)c1 [PE, 1-(3′,5′-dihydroxyphenoxy)-7-(2″,4″,6-trihydroxyphenoxy)-2,4,9-trihydroxydibenzo-1,4-dioxin]
MSSA (KCTC 1927); [6]
  MIC: 64 µg/mL (≈ 129 µM)
MRSA (KCCM 40510) [1]; [6]
  MIC: 32 µg/mL (≈ 64.5 µM)
MRSA (KCCM 40511) [2]; [6]
  MIC: 64 µg/mL (≈ 129 µM)

## CC1(C)S[C@@H]2[C@H](NC(=O)[C@H](N)c3ccccc3)C(=O)N2[C@H]1C(=O)O [Ampicillin, ampicillin]
MSSA (KCTC 1927); Staphylococcus aureus, Table 5, PFF and β-lactams, mecA negative strain, read-out: MIC
  MIC: 0.063 µg/mL (≈ 0.18 µM)
MSSA (KCCTC 1927); [7]
  MIC: 0.063 µg/mL
MSSA (KCCTC 1927); [8]
  MIC: 0.063 µg/mL
MSSA (KCCTC 1927); [9]
  MIC: 0.063 µg/mL
MSSA (KCCTC 1927); [10]
  FIC index (b): 1.391
MSSA (KCCTC 1927); [11]
  FIC index (c): 1.781
MRSA (KCCM 40510) [3]; [7]
  MIC: 16 µg/mL
MRSA (KCCM 40510) [3]; [8]
  MIC: 8 µg/mL
MRSA (KCCM 40510) [3]; [9]
  MIC: 512 µg/mL
MRSA (KCCM 40510) [3]; [10]
  FIC index (b): 0.422
MRSA (KCCM 40510) [3]; [11]
  FIC index (c): 0.407
MRSA (KCCM 40511) [4]; [7]
  MIC: 2 µg/mL
MRSA (KCCM 40511) [4]; [8]
  MIC: 1 µg/mL
MRSA (KCCM 40511) [4]; [9]
  MIC: 512 µg/mL
MRSA (KCCM 40511) [4]; [10]
  FIC index (b): 0.395
MRSA (KCCM 40511) [4]; [11]
  FIC index (c): 0.393

## CN[C@H](CC(C)C)C(=O)N[C@H]1C(=O)N[C@@H](CC(N)=O)C(=O)N[C@H]2C(=O)N[C@H]3C(=O)N[C@H](C(=O)N[C@H](C(=O)O)c4cc(O)cc(O)c4-c4cc3ccc4O)[C@H](O)c3ccc(c(Cl)c3)Oc3cc2cc(c3O[C@@H]2O[C@H](CO)[C@@H](O)[C@H](O)[C@H]2O[C@H]2C[C@](C)(N)[C@H](O)[C@H](C)O2)Oc2ccc(cc2Cl)[C@H]1O [Vancomycin, vancomycin]
MSSA (KCTC 1927); Staphylococcus aureus
  MIC: 0.5 µg/mL (≈ 0.345 µM)
MRSA (KCCM 40510) [1]; Staphylococcus aureus
  MIC: 2 µg/mL (≈ 1.38 µM)
MRSA (KCCM 40511) [2]; Staphylococcus aureus
  MIC: 2 µg/mL (≈ 1.38 µM)

## fucofuroeckol-A [FF]
MSSA (KCTC 1927); [6]
  MIC: 32 µg/mL
MRSA (KCCM 40510) [1]; [6]
  MIC: 64 µg/mL
MRSA (KCCM 40511) [2]; [6]
  MIC: 64 µg/mL

## phlorofucofuroeckol A [PFF]
MSSA (KCTC 1927); Table 5, PFF and β-lactams, mecA negative strain
  MIC: 32 µg/mL
MSSA (KCTC 1927); [6]
  MIC: 32 µg/mL
MRSA (KCCM 40510) [1]; [12]
  MIC: 32 µg/mL
MRSA (KCCM 40510) [1]; [6]
  MIC: 32 µg/mL
MRSA (KCCM 40511) [2]; [12]
  MIC: 32 µg/mL
MRSA (KCCM 40511) [2]; [6]
  MIC: 32 µg/mL
[5]
  gene transcription of mec operon (mecA, mecI, mecR1): inhibited the gene transcription of mec operon (mecA, mecI, mecR1) involving in synthesizing PBP2a depending on the concentrations
PBP2a
  PBP2a synthesis (protein expression): inhibited a PBP2a synthesis that is a final product of mecA gene depending on the concentrations
MRSA
  effect on the MICs of the β-lactams against MRSA: remarkably reduce the MICS of the β-lactams against MRSA
